Key:
Assay in all cases: radiometric filter-binding kinase assay
[1] = test system: AKT1 (human), P31749 [S473D]
AURKA (human) = AURKA (human) (UniProt O14965)
BRSK1 (human) = BRSK1 (human) (UniProt Q8TDC3)
BRSK2 (human) = BRSK2 (human) (UniProt Q8IWQ3)
BTK (human) = BTK (human) (UniProt Q06187)
CaMK1 (human) = CaMK1 (human) (UniProt Q14012)
DYRK2 (human) = DYRK2 (human) (UniProt Q92630)
DYRK3 (human) = DYRK3 (human) (UniProt O43781)
EPHB1 (human) = EPHB1 (human) (UniProt P54762)
EPHB2 (human) = EPHB2 (human) (UniProt P29323)
FLT1 (human) = FLT1 (human) (UniProt P17948)
GCK (human) = GCK (human) (UniProt Q12851)
HIPK1 (human) = HIPK1 (human) (UniProt Q86Z02)
HIPK2 (human) = HIPK2 (human) (UniProt Q9H2X6)
INSR (human) = INSR (human) (UniProt P06213); settings: compound 10.0 µM
JAK2 JH1 JH2 (human) = JAK2 JH1 JH2 (human) (UniProt O60674)
MAP2K1 (human) = MAP2K1 (human) (UniProt Q02750)
MAP3K1 (human) = MAP3K1 (human) (UniProt Q13233)
MAP3K11 (human) = MAP3K11 (human) (UniProt Q16584)
MAP3K5 (human) = MAP3K5 (human) (UniProt Q99683)
MAPK10 (human) = MAPK10 (human) (UniProt P53779)
MAPK11 (human) = MAPK11 (human) (UniProt Q15759)
MAPK8 (human) = MAPK8 (human) (UniProt P45983)
MAPK9 (human) = MAPK9 (human) (UniProt P45984)
MAPKAPK5 (human) = MAPKAPK5 (human) (UniProt Q8IW41); settings: compound 10.0 µM
MARK3 (human) = MARK3 (human) (UniProt P27448)
PIM1 (human) = PIM1 (human) (UniProt P11309)
PRKCA (human) = PRKCA (human) (UniProt P17252)
[2] = test system: RPS6KB1 (human), P23443 [T412E]
STK3 (human) = STK3 (human) (UniProt Q13188)
SYK (human) = SYK (human) (UniProt P43405)
TAOK1 (human) = TAOK1 (human) (UniProt Q7L7X3)
TBK1 (human) = TBK1 (human) (UniProt Q9UHD2)
YES1 (human) = YES1 (human) (UniProt P07947)
EPHA2 (human) = EPHA2 (human) (UniProt P29317)
EPHB4 (human) = EPHB4 (human) (UniProt P54760); settings: compound 1.0 µM

MAPK9 (human), sequence (P45984 whole entry, looked up): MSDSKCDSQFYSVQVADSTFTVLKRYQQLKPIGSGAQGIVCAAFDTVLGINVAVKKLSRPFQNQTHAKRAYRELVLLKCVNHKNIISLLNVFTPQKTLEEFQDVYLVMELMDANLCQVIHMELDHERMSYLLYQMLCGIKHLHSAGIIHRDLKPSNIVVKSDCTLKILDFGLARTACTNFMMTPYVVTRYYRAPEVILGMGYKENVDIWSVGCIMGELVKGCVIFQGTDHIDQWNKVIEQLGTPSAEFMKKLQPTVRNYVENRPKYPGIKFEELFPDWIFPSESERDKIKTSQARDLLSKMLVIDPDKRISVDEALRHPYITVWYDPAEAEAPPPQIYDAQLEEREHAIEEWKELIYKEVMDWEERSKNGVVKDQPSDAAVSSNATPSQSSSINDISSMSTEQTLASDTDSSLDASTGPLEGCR
MAP3K5 (human), sequence (Q99683 whole entry, looked up): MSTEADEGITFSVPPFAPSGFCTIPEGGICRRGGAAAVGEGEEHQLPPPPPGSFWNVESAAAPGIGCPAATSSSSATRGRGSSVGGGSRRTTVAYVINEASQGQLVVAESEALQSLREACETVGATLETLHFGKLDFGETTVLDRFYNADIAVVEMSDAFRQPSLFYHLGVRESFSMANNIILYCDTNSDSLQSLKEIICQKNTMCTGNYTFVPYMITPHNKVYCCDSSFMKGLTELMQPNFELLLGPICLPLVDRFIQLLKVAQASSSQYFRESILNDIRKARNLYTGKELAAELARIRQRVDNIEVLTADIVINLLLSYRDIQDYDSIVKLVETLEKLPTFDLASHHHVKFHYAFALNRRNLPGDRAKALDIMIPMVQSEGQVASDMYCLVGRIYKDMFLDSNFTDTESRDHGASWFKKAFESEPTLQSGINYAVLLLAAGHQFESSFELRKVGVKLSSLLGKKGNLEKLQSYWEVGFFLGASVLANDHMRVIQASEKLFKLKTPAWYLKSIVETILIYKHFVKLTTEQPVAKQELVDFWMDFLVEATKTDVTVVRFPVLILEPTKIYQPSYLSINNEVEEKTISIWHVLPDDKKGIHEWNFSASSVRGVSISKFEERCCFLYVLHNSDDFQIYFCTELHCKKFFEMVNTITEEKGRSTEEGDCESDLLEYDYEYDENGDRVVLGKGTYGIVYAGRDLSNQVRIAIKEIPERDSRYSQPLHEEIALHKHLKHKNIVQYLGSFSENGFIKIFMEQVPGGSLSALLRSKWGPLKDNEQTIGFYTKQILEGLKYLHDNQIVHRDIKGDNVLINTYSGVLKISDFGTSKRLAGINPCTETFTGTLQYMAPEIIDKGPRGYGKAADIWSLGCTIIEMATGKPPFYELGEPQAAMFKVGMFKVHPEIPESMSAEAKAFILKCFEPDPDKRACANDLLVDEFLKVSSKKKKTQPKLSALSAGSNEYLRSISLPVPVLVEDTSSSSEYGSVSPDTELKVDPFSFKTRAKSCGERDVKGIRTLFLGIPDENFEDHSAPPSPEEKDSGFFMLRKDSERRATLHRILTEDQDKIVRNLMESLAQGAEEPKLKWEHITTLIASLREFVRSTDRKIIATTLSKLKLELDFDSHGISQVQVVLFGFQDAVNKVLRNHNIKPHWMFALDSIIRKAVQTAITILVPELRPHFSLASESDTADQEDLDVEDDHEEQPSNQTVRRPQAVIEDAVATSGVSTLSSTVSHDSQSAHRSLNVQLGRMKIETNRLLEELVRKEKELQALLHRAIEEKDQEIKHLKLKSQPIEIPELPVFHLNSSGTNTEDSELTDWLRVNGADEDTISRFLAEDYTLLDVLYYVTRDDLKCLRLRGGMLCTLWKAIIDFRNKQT
EPHB1 (human), sequence (P54762 whole entry, looked up): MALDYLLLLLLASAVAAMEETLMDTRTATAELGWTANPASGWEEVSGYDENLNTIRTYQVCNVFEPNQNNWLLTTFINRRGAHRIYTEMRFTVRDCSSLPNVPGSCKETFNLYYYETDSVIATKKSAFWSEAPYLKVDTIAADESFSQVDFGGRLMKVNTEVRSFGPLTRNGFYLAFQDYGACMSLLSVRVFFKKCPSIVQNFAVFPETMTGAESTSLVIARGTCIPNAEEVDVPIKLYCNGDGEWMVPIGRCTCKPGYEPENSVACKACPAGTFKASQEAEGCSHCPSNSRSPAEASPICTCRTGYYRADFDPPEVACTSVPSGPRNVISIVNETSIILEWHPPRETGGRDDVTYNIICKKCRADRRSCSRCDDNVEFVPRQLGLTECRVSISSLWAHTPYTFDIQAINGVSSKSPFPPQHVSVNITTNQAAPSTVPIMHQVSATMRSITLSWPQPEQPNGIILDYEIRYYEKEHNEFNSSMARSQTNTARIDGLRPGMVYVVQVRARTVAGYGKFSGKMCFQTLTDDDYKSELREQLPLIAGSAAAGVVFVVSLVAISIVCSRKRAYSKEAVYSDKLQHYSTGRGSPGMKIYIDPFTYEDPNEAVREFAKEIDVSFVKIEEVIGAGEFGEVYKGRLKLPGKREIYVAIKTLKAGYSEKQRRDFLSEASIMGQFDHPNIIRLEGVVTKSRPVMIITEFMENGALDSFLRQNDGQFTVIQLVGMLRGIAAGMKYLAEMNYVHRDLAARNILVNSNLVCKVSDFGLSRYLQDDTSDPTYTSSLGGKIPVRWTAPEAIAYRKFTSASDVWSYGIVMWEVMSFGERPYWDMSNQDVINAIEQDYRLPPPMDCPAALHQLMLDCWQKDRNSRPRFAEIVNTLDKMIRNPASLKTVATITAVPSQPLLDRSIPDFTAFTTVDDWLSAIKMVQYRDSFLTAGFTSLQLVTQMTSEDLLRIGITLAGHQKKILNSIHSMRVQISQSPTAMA
RPS6KB1 (human), P23443 [T412E], sequence (P23443 whole entry T412E, looked up): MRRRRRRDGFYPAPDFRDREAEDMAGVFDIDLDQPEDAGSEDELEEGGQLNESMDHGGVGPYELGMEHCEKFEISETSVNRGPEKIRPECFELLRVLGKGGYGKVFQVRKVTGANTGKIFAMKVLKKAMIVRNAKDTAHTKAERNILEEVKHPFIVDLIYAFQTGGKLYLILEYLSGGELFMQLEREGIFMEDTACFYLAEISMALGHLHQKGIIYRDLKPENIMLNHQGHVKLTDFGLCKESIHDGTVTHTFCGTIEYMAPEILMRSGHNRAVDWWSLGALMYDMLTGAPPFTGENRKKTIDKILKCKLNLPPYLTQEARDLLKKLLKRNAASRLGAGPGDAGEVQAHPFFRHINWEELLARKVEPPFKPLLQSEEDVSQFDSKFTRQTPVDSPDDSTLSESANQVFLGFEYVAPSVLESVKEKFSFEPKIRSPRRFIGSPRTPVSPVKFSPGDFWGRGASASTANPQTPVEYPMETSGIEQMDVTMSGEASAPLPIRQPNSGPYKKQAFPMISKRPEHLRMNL
MAP2K1 (human), sequence (Q02750 whole entry, looked up): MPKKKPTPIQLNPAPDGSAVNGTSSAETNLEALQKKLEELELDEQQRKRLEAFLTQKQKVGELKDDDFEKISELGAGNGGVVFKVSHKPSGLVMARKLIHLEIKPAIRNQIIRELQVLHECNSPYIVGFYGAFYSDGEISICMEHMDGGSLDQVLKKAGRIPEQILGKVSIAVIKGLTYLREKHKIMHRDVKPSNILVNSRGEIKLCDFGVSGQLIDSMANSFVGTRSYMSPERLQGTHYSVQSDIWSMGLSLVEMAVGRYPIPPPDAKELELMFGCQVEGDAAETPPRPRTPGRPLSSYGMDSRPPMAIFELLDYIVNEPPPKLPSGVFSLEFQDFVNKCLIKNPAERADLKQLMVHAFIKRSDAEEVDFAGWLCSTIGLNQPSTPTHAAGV
MAPK8 (human), sequence (P45983 whole entry, looked up): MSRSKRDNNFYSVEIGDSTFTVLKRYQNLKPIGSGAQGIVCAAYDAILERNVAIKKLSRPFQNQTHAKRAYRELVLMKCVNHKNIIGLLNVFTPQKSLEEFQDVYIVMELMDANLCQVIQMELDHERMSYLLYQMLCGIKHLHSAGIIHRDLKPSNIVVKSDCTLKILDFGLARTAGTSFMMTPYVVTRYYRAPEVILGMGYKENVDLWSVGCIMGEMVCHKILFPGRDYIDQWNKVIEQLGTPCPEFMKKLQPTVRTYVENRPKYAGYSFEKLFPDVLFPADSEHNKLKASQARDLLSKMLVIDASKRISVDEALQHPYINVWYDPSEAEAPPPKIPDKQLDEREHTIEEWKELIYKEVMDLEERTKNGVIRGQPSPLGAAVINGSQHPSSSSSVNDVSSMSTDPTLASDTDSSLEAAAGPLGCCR

## O=S(=O)(c1ccc(F)c2nonc12)N1CCN(c2ncc(C(F)(F)F)cc2Cl)CC1
[1]; compound 10.0 µM
  residual activity: 97%
AURKA (human); compound 10.0 µM
  residual activity: 99%
BRSK1 (human); compound 10.0 µM
  residual activity: 109%
BRSK2 (human); compound 10.0 µM
  residual activity: 108%
BTK (human); compound 10.0 µM
  residual activity: 86%
CaMK1 (human); compound 10.0 µM
  residual activity: 92%
DYRK2 (human); compound 10.0 µM
  residual activity: 107%
DYRK3 (human); compound 10.0 µM
  residual activity: 91%
EPHB1 (human); compound 10.0 µM
  residual activity: 117%
EPHB2 (human); compound 10.0 µM
  residual activity: 102%
FLT1 (human); compound 10.0 µM
  residual activity: 78%
GCK (human); compound 10.0 µM
  residual activity: 80%
HIPK1 (human); compound 10.0 µM
  residual activity: 94%
HIPK2 (human); compound 10.0 µM
  residual activity: 97%
INSR (human)
  residual activity: 93%
JAK2 JH1 JH2 (human); compound 10.0 µM
  residual activity: 97%
MAP2K1 (human); compound 10.0 µM
  residual activity: 99%
MAP3K1 (human); compound 10.0 µM
  residual activity: 85%
MAP3K11 (human); compound 10.0 µM
  residual activity: 89%
MAP3K5 (human); compound 10.0 µM
  residual activity: 101%
MAPK10 (human); compound 10.0 µM
  residual activity: 93%
MAPK11 (human); compound 10.0 µM
  residual activity: 101%
MAPK8 (human); compound 10.0 µM
  residual activity: 88%
MAPK9 (human); compound 10.0 µM
  residual activity: 87%
MAPKAPK5 (human)
  residual activity: 85%
MARK3 (human); compound 10.0 µM
  residual activity: 106%
PIM1 (human); compound 10.0 µM
  residual activity: 88%
PRKCA (human); compound 10.0 µM
  residual activity: 82%
[2]; compound 10.0 µM
  residual activity: 95%
STK3 (human); compound 10.0 µM
  residual activity: 82%
SYK (human); compound 10.0 µM
  residual activity: 94%
TAOK1 (human); compound 10.0 µM
  residual activity: 98%
TBK1 (human); compound 10.0 µM
  residual activity: 85%
YES1 (human); compound 10.0 µM
  residual activity: 105%

## C=C1C(=O)OC2C1CC/C(C)=C/CCC1(C)OC21 (stereo unspecified)
[1]; compound 1.0 µM
  residual activity: 107%
[1]; compound 5.0 µM
  residual activity: 106%
AURKA (human); compound 5.0 µM
  residual activity: 115%
BRSK1 (human); compound 1.0 µM
  residual activity: 109%
BRSK1 (human); compound 5.0 µM
  residual activity: 108%
BRSK2 (human); compound 1.0 µM
  residual activity: 109%
BTK (human); compound 1.0 µM
  residual activity: 117%
BTK (human); compound 5.0 µM
  residual activity: 85%
CaMK1 (human); compound 1.0 µM
  residual activity: 116%
CaMK1 (human); compound 5.0 µM
  residual activity: 104%
DYRK2 (human); compound 1.0 µM
  residual activity: 113%
DYRK2 (human); compound 5.0 µM
  residual activity: 101%
DYRK3 (human); compound 1.0 µM
  residual activity: 124%
DYRK3 (human); compound 5.0 µM
  residual activity: 106%
EPHA2 (human); compound 1.0 µM
  residual activity: 104%
EPHA2 (human); compound 5.0 µM
  residual activity: 99%
EPHB1 (human); compound 1.0 µM
  residual activity: 103%
EPHB1 (human); compound 5.0 µM
  residual activity: 115%
EPHB2 (human); compound 1.0 µM
  residual activity: 72%
EPHB2 (human); compound 5.0 µM
  residual activity: 78%
EPHB4 (human)
  residual activity: 124%
FLT1 (human); compound 1.0 µM
  residual activity: 109%
FLT1 (human); compound 5.0 µM
  residual activity: 98%
GCK (human); compound 1.0 µM
  residual activity: 116%
GCK (human); compound 5.0 µM
  residual activity: 98%
HIPK1 (human); compound 1.0 µM
  residual activity: 114%
HIPK1 (human); compound 5.0 µM
  residual activity: 106%
HIPK2 (human); compound 1.0 µM
  residual activity: 124%
HIPK2 (human); compound 5.0 µM
  residual activity: 113%
JAK2 JH1 JH2 (human); compound 1.0 µM
  residual activity: 116%
JAK2 JH1 JH2 (human); compound 5.0 µM
  residual activity: 98%
MAP2K1 (human); compound 1.0 µM
  residual activity: 96%
MAP2K1 (human); compound 5.0 µM
  residual activity: 93%
MAP3K1 (human); compound 1.0 µM
  residual activity: 112%
MAP3K1 (human); compound 5.0 µM
  residual activity: 120%
MAP3K11 (human); compound 1.0 µM
  residual activity: 104%
MAP3K11 (human); compound 5.0 µM
  residual activity: 116%
MAP3K5 (human); compound 1.0 µM
  residual activity: 98%
MAP3K5 (human); compound 5.0 µM
  residual activity: 125%
MAPK10 (human); compound 1.0 µM
  residual activity: 115%
MAPK10 (human); compound 5.0 µM
  residual activity: 134%
MAPK11 (human); compound 1.0 µM
  residual activity: 111%
MAPK11 (human); compound 5.0 µM
  residual activity: 121%
MAPK8 (human); compound 1.0 µM
  residual activity: 104%
MAPK8 (human); compound 5.0 µM
  residual activity: 102%
MAPK9 (human); compound 1.0 µM
  residual activity: 114%
MAPK9 (human); compound 5.0 µM
  residual activity: 110%
MARK3 (human); compound 1.0 µM
  residual activity: 123%
MARK3 (human); compound 5.0 µM
  residual activity: 98%
PIM1 (human); compound 1.0 µM
  residual activity: 97%
PIM1 (human); compound 5.0 µM
  residual activity: 108%
PRKCA (human); compound 1.0 µM
  residual activity: 108%
PRKCA (human); compound 5.0 µM
  residual activity: 108%
[2]; compound 1.0 µM
  residual activity: 103%
[2]; compound 5.0 µM
  residual activity: 106%
STK3 (human); compound 1.0 µM
  residual activity: 118%
STK3 (human); compound 5.0 µM
  residual activity: 125%
SYK (human); compound 1.0 µM
  residual activity: 102%
SYK (human); compound 5.0 µM
  residual activity: 105%
TAOK1 (human); compound 5.0 µM
  residual activity: 103%
TBK1 (human); compound 1.0 µM
  residual activity: 104%
YES1 (human); compound 5.0 µM
  residual activity: 109%

Reference: the kinase profiling compilation of Christmann-Franck et al. (2016)
